According to article PMC12809313, “New Sulfonate-Semicarbazone Hybrid Molecules: Synthesis, Theoretical Evaluations, Molecular Simulations, and Butyrylcholinesterase Inhibition Activity” (ACS Omega, 2025):
Several values for one entry are separate records, joined by “and”; a condition that tells them apart may be missing. Identical values can stand only once.

Legend:
[1] = target: T1, butyrylcholinesterase (BChE) (Homo sapiens, UniProt P06276); assay: In vitro BChE inhibition (Ellman's technique); assay type: biochemical; conditions: Ellman assay, five concentrations, triplicate
T1 sequence (P06276 29-602): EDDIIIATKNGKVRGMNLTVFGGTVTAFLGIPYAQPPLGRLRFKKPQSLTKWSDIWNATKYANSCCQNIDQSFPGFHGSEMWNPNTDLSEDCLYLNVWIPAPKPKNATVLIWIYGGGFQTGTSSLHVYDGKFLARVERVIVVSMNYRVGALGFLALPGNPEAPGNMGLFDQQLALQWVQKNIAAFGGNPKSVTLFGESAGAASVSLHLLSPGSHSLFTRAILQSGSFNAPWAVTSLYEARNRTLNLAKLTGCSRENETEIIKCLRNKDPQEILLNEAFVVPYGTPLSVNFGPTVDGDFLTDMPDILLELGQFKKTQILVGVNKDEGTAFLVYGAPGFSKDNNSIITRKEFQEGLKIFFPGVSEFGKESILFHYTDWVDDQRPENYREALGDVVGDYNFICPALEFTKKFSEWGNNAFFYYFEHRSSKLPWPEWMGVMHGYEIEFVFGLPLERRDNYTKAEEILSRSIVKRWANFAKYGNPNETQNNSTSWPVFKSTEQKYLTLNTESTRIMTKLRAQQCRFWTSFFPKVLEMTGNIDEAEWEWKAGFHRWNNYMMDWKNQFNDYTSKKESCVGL
Procedure: The semicarbazone derivatives were evaluated for their inhibitory activities against human acetylcholinesterase (AChE) and butyrylcholinesterase (BChE) enzymes using standard in vitro assays. The Ellman’s technique that was tailored to our lab’s needs was used to measure the activity of the cholinesterase enzyme. The test chemicals were first dissolved in DMSO at a concentration of 1 mg/mL to create stock solutions, which were then diluted 10 times with distilled water for use in the inhibition tests. Each compound’s inhibitory effects on the enzymes were evaluated at five different concentrations. Fifty microliters of distilled water, 50 μL of 0.1 M Tris–HCl buffer (pH 8.0), 15 μL of 0.015 M […] (as substrates), 30 μL of 0.06 M DTNB (5,5′-dithiobis(2-nitrobenzoic acid)), and 10 μL of enzyme solution made up the reaction mixture for the AChE and BChE tests. The absorbance of the blank solutions was measured before the substrate was added. The substrate was then added to each well to start the enzymatic reaction. Enzyme activity was kinetically assessed at 408 nm by using a microplate reader. Each inhibition measurement was repeated three times, and average values were taken when measuring the inhibitory potentials of the molecules. The IC50 values, indicating each compound’s inhibitory strength against cholinesterase, were determined by plotting percent activity versus inhibitor concentration.

[2] = target: T1, butyrylcholinesterase (BChE); assay: BChE enzyme kinetics (Lineweaver–Burk plots); assay type: biochemical; conditions: for inhibition type: Lineweaver–Burk plots; for Ki: substrate butyrylthiocholine iodide, Lineweaver–Burk, read-out: inhibition constant (K i)
Procedure: The enzymatic activity of BChE was evaluated at various concentrations of the substrate butyrylthiocholine iodide (BTChI) in the presence of fixed concentrations of each inhibitor. The resulting data were analyzed by Lineweaver–Burk double reciprocal plots to determine kinetic parameters such as K m, V max, and the inhibition type (Figure ).
Different concentrations of butyrylthiocholine iodide were used in the presence of three concentrations of each compound. Lineweaver–Burk plots were constructed by plotting the reciprocal of reaction velocity (1/V) against the reciprocal of substrate concentration (1/[S]). Based on these plots, the inhibition types were determined. The inhibition constant (K i) was calculated using the following equation (eq ). 2 slope=Km/Vmax×(1+[I]/Ki)

| SMILES | IC50 [1] | BChE IC50 [1] | inhibition type [2] | Ki [2] |
| --- | --- | --- | --- | --- |
| NC(=O)N/N=C/c1ccc(OS(=O)(=O)c2ccccc2)cc1 [Compound 1, 4-[(E)-(2-Carbamoylhydrazinylidene)methyl]phenyl Benzenesulfonate] | 139 µM | – | – | – |
| NC(=O)N/N=C/c1ccc(OS(=O)(=O)c2ccc(F)cc2)cc1 [Compound 2, 4-[(E)-(2-Carbamoylhydrazinylidene)methyl]phenyl 4-Fluorobenzene-1-sulfonate] | 161 µM | – | – | – |
| NC(=O)N/N=C/c1ccc(OS(=O)(=O)c2ccc(Cl)cc2)cc1 [Compound 3, 4-[(E)-(2-carbamoylhydrazinylidene)methyl]phenyl 4-Chlorobenzene-1-sulfonate] | 141 µM | – | – | – |
| NC(=O)N/N=C/c1ccc(OS(=O)(=O)c2ccc(Br)cc2)cc1 [Compound 4, 4-[(E)-(2-Carbamoylhydrazinylidene)methyl]phenyl 4-Bromobenzene-1-sulfonate] | 177 µM | – | – | – |
| NC(=O)N/N=C/c1ccc(OS(=O)(=O)c2ccc(I)cc2)cc1 [Compound 5, 4-[(E)-(2-Carbamoylhydrazinylidene)methyl]phenyl 4-Iodobenzene-1-sulfonate] | 173 µM | – | – | – |
| Cc1ccc(S(=O)(=O)Oc2ccc(/C=N/NC(N)=O)cc2)cc1 [Compound 6, 4-[(E)-(2-Carbamoylhydrazinylidene)methyl]phenyl 4-Methylbenzene-1-sulfonate] | 178 µM | – | – | – |
| COc1ccc(S(=O)(=O)Oc2ccc(/C=N/NC(N)=O)cc2)cc1 [Compound 7, 4-[(E)-(2-Carbamoylhydrazinylidene)methyl]phenyl 4-Methoxybenzene-1-sulfonate] | 136 µM | – | – | – |
| NC(=O)N/N=C/c1ccc(OS(=O)(=O)c2ccccc2C(F)(F)F)cc1 [Compound 8, 4-[(E)-(2-Carbamoylhydrazinylidene)methyl]phenyl 2-(Trifluoromethyl)benzene-1-sulfonate] | 172 µM | – | – | – |
| NC(=O)N/N=C/c1ccc(OS(=O)(=O)c2cccc(C(F)(F)F)c2)cc1 [Compound 9, 4-[(E)-(2-Carbamoylhydrazinylidene)methyl]phenyl-3-(trifluoromethyl)benzene-1-sulfonate] | 147 µM | – | – | – |
| NC(=O)N/N=C/c1ccc(OS(=O)(=O)c2ccc(C(F)(F)F)cc2)cc1 [Compound 10, 4-[(E)-(2-Carbamoylhydrazinylidene)methyl]phenyl-4-(trifluoromethyl)benzene-1-sulfonate] | 139 µM | – | – | – |
| NC(=O)N/N=C/c1ccc(OS(=O)(=O)c2cc(C(F)(F)F)cc(C(F)(F)F)c2)cc1 [Compound 11, 4-[(E)-(2-Carbamoylhydrazinylidene)methyl]phenyl 3,5-Bis(trifluoromethyl)benzene-1-sulfonate] | < 130 µM and 114 µM | stronger inhibition than the reference drug pyridostigmine bromide | – | – |
| NC(=O)N/N=C/c1ccc(OS(=O)(=O)c2ccccc2OC(F)(F)F)cc1 [Compound 12, 4-[(E)-(2-Carbamoylhydrazinylidene)methyl]phenyl 2-(Trifluoromethoxy)benzene-1-sulfonate] | 61.9 µM and < 130 µM | stronger inhibition than the reference drug pyridostigmine bromide | reversible competitive inhibitors | 11.9 ± 3.31 µM |
| NC(=O)N/N=C/c1ccc(OS(=O)(=O)c2cccc(OC(F)(F)F)c2)cc1 [Compound 13, 4-[(E)-(2-Carbamoylhydrazinylidene)methyl]phenyl 3-(Trifluoromethoxy)benzene-1-sulfonate] | < 130 µM and 116 µM | stronger inhibition than the reference drug pyridostigmine bromide | – | – |
| NC(=O)N/N=C/c1ccc(OS(=O)(=O)c2ccc(OC(F)(F)F)cc2)cc1 [Compound 14, 4-[(E)-(2-Carbamoylhydrazinylidene)methyl]phenyl 4-(Trifluoromethoxy)benzene-1-sulfonate] | < 130 µM and 130 µM | stronger inhibition than the reference drug pyridostigmine bromide | – | – |
| NC(=O)N/N=C/c1ccc(OS(=O)(=O)c2ccc([N+](=O)[O-])cc2)cc1 [Compound 15, 4-[(E)-(2-Carbamoylhydrazinylidene)methyl]phenyl 4-Nitrobenzene-1-sulfonate] | 347 µM | – | – | – |
| NC(=O)N/N=C/c1ccc(OS(=O)(=O)c2ccc(-c3ccccc3)cc2)cc1 [Compound 16, 4-[(E)-(2-Carbamoylhydrazinylidene)methyl]phenyl [1,1′-Biphenyl]-4-sulfonate] | < 130 µM and 112 µM | stronger inhibition than the reference drug pyridostigmine bromide | – | – |
| NC(=O)N/N=C/c1ccc(OS(=O)(=O)c2cccc3ccccc23)cc1 [Compound 17, 4-[(E)-(2-Carbamoylhydrazinylidene)methyl]phenyl Naphthalene-1-sulfonate] | 77 µM and < 130 µM | stronger inhibition than the reference drug pyridostigmine bromide | reversible competitive inhibitors | 9.08 ± 3.51 µM |
| NC(=O)N/N=C/c1ccc(OS(=O)(=O)c2ccc3ccccc3c2)cc1 [Compound 18, 4-[(E)-(2-Carbamoylhydrazinylidene)methyl]phenyl Naphthalene-2-sulfonate] | 93.7 µM and < 130 µM | stronger inhibition than the reference drug pyridostigmine bromide | reversible competitive inhibitors | 5.49 ± 0.33 µM |
